From patent US11780826B2 (Amgen Inc., priority 2017, dated 2023) come the findings set out here.

Structures are written as SMILES.

The test has as its system Bovine cardiac myofibrils. Kind of test: In vitro model of dose-dependent myofibril ATPase modulation (AC1.4, pyruvate kinase/lactate dehydrogenase-coupled ATPase assay at pCa25). It counts as biochemical. To be noted: concentration at which ATPase activity was 1.4-fold higher than the bottom of the dose curve, mean of a minimum of two independent tests. A digest of the protocol: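 Bovine cardiac myofibrils, detergent-treated; 0.25-1.0 mg/ml. Buffer: K-PIPES 12 mM, MgCl2 2 mM, DTT 1 mM, BSA 0.1 mg/ml, pH 6.80, 22° C; Ca2+ set by EGTA/CaCl2. ATP 1 mM, NADH/PEP-coupled, A340. 4-parameter fit; n≥2.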
For the molecule `N#CC1CN(S(=O)(=O)N2CCC[C@H](C(=O)N3CCC[C@@H]3C(=O)NCc3ccc(Cl)c(C(F)(F)F)c3)C2)C1` [Example 333, N-(4-chloro-3-(trifluoromethyl)benzyl)-1-(((3S)-1-((3-cyano-1-azetidinyl)sulfonyl)-3-piperidinyl)carbonyl)-D-prolinamide], the AC1.4 came to 0.921 µM.
On to `CS(=O)(=O)c1ccc(NCCO)c(C(=O)N2[C@@H](C(=O)N[C@@H](c3ccc(C(F)(F)F)cc3F)C3CC3)C[C@H]3C[C@H]32)c1` [Example 118, (1R,3R,5R)-N-((R)-cyclopropyl(2-fluoro-4-(trifluoromethyl)phenyl)methyl)-2-(2-((2-hydroxyethyl)amino)-5-(methylsulfonyl)benzoyl)-2-azabicyclo[3.1.0]hexane-3-carboxamide], for which the AC1.4 turned out to be 0.1795 µM.
The molecule `C[C@@H](NC(=O)[C@H]1CCCN1C(=O)c1cccc(S(=O)(=O)N2CC(C#N)C2)c1)c1ccc(C(F)(F)F)cc1` [Example 41, 1-((3-((3-cyano-1-azetidinyl)sulfonyl)phenyl)carbonyl)-N-((1R)-1-(4-(trifluoromethyl)phenyl)ethyl)-D-prolinamide] yielded an AC1.4 of 0.04135 µM.
Molecule `CCC(NC(=O)[C@H]1CCCN1C(=O)[C@H]1CCCN(S(=O)(=O)N2CC(C#N)C2)C1)c1ccccc1OC` (stereo partly drawn) [Example 804, (2R)-1-((S)-1-((3-cyanoazetidin-1-yl)sulfonyl)piperidine-3-carbonyl)-N-(1-(2-methoxyphenyl)propyl)pyrrolidine-2-carboxamide] came in with an AC1.4 of 9.7525 µM.
In the case of `C[C@@H](NC(=O)[C@H]1CCCN1C(=O)[C@@H]1CN(S(=O)(=O)N2CC(C#N)C2)CCO1)c1ccc(Cl)cc1` [Example 291, N-((1R)-1-(4-chlorophenyl)ethyl)-1-(((2S)-4-((3-cyano-1-azetidinyl)sulfonyl)-2-morpholinyl)carbonyl)-D-prolinamide], the AC1.4 amounted to 0.756 µM.
With `CC(O)C(NC(=O)[C@H]1C[C@H]2C[C@H]2N1C(=O)c1cccc(S(C)(=O)=O)c1)c1cc(F)c(Cl)cc1F` (stereo partly drawn) [Example 757, (1R,3R,5R)-N-(1-(4-chloro-2,5-difluorophenyl)-2-hydroxypropyl)-2-(3-(methylsulfonyl)benzoyl)-2-azabicyclo[3.1.0]hexane-3-carboxamide] the figure was 7.6005 µM; with `CC(=O)Nc1ccccc1C(=O)N1[C@@H](C(=O)N[C@@H](c2ccc(C(F)(F)F)cc2F)C2CC2)C[C@H]2C[C@H]21` [Example 372, (1R,3R,5R)-2-(2-acetamidobenzoyl)-N-((R)-cyclopropyl(2-fluoro-4-(trifluoromethyl)phenyl)methyl)-2-azabicyclo[3.1.0]hexane-3-carboxamide], 1.2085 µM.
With `COC(=O)[C@H]1C[C@H](S(=O)(=O)N2CCC[C@H](C(=O)N3CCC[C@@H]3C(=O)NCc3ccc(C(F)(F)F)cc3)C2)C1` [Example 775, methyltrans-3-(((3S)-3-(((2R)-2-((4-(trifluoromethyl)benzyl)carbamoyl)-1-pyrrolidinyl)carbonyl)-1-piperidinyl)sulfonyl)cyclobutanecarboxylate], the AC1.4 stood at 8.31 µM.
With `CS(=O)(=O)c1cncc(C(=O)N2[C@@H](C(=O)N[C@@H](c3ccc(C(F)(F)F)c(F)c3)C3CC3)C[C@H]3C[C@H]32)c1` [Example 548, (1R,3R,5R)-N-((R)-cyclopropyl(3-fluoro-4-(trifluoromethyl)phenyl)methyl)-2-((5-(methylsulfonyl)-3-pyridinyl)carbonyl)-2-azabicyclo[3.1.0]hexane-3-carboxamide] the figure was 2.66 µM; with `O=C(N[C@@H](c1ccc(C(F)(F)F)cc1F)C1CC1)[C@H]1C[C@H]2C[C@H]2N1C(=O)c1cccc(C(O)C(F)(F)F)c1` (stereo partly drawn) [Example 547, (1R,3R,5R)-N-((R)-cyclopropyl(2-fluoro-4-(trifluoromethyl)phenyl)methyl)-2-(3-(2,2,2-trifluoro-1-hydroxyethyl)benzoyl)-2-azabicyclo[3.1.0]hexane-3-carboxamide], 2.836 µM.
